Converted amounts (≈) assume the structure as drawn.
Experiments:
[1] = system: human tumour cells; conditions: nude mice transplanted human tumour cells; cited from earlier work
[2] = system: normal human endothelial cells; conditions: in vitro; cited from earlier work
[3] = Solubilization of compound 1 with surfactants, solution placed for observation; format: physicochemical; conditions: 12 hours
Method: (§1) 2.5 mg of compound 1 was weighed and dissolved with 0.5 ml of 0.1N hydrochloric acid solution. 5% (V/V) of polysorbate 80 was added in the resultant solution. The pH of the solution was adjusted with 0.1N of sodium hydroxide to such an extent that precipitates were just to generate.
2.5 mg of compound 1 was weighed and dissolved with 0.5 ml of 0.1N hydrochloric acid solution. An amount of 0.1 N sodium hydroxide solution which is equal to that in Example 25 was added. Precipitates produced.
as §1, with “2” for “2.5”, “polyethylene glycol-12-hydroxy stearate” for “polysorbate 80”
2 mg of compound 1 was weighed and dissolved with 0.5 ml of 0.1N hydrochloric acid solution. The pH was adjusted with an amount of 0.1 N sodium hydroxide solution which is equal to that in Example 27. Precipitates produced.
2 mg of compound 1 was weighed and dissolved with 0.5 ml of 0.1N hydrochloric acid solution. 5% (V/V) of polyoxyethylene castor oil was added in the resultant solution. The pH of the solution was adjusted with 0.1N of sodium hydroxide to such an extent that precipitates were just to generate.
2 mg of compound 1 was weighed and dissolved with 0.5 ml of 0.1N hydrochloric acid solution. The pH was adjusted with an amount of 0.1 N sodium hydroxide solution which is equal to that in Example 29. Precipitates produced.

[4] = Determination of solubility in hydrochloric acid solution of pH 4.0 (saturated solution, HPLC); format: physicochemical; conditions: ultrasonic 1 hour; for solubility at 1 h: aqueous buffer, thermodynamic from solid, read-out: Solubilities in hydrochloric acid of pH 4
Method: 1.6 mg of compound 4 was weighed and dissolved in a mixed solution of 1 ml of methanol and 0.5 ml of DMSO to obtain a control solution. 7.66 mg of compound 4 was dissolved in hydrochloric acid solution of pH 4.0 and shaken in an ultrasonic device for 1 hour to prepare a saturated solution. The solubility of compound 4 in hydrochloric acid solution of pH 4.0 was determined by HPLC.
The solubilities of compound 5 to compound 17 in hydrochloric acid solution were determined with the process for determining the solubility in Example 52.

| SMILES | solubility at 1 h [4] [µg/mL] | Solubilities in hydrochloric acid of pH 4 [4] [mg/ml] | also measured |
| --- | --- | --- | --- |
| N#CNC(=Nc1ccncc1)NCCCCCCOc1ccc(Cl)cc1 [compound 1, N-cyano-N′-(6-(p-chlorophenoxy)hexyl)-N″-(4-pyridyl)guanidine] | – | – | antitumour activity [1]: potent antitumour activity; antiproliferative activity to normal human endothelial cells [2]: significantly lower antiproliferative activity; appearance of solution on standing ([3]; Example 25: 0.1N HCl, 5% (V/V) polysorbate 80, pH adjusted with 0.1N NaOH): solution kept clear for 12 hours; appearance of solution on standing ([3]; Example 26: control without polysorbate 80, same amount of NaOH): precipitates increased during 12 hours; appearance of solution on standing ([3]; Example 27: 0.1N HCl, 5% (V/V) polyethylene glycol-12-hydroxy stearate, pH adjusted with 0.1N NaOH): solution kept clear for 12 hours; appearance of solution on standing ([3]; Example 28: control without polyethylene glycol-12-hydroxy stearate, same amount of NaOH): precipitates increased during 12 hours; appearance of solution on standing ([3]; Example 29: 0.1N HCl, 5% (V/V) polyoxyethylene castor oil, pH adjusted with 0.1N NaOH): solution kept clear for 12 hours; appearance of solution on standing ([3]; Example 30: control without polyoxyethylene castor oil, same amount of NaOH): precipitates increased during 12 hours |
| N#CNC(=Nc1ccncc1)NCCCCCOc1ccc(Cl)cc1 [compound 13, N-cyano-N′-(5-(p-chlorophenoxy)pentyl)-N″-(4-pyridyl)guanidine] | 29.5 (≈ 82.5 µM) | – | – |
| N#CNC(=Nc1ccncc1)NCCCCCOc1c(Cl)cc(Cl)cc1Cl [compound 16] | – | 0.01753 | – |
| N#CNC(=Nc1ccncc1)NCCCCCCOC(=O)c1ccc(Cl)cc1 [compound 6, N-(6-((4-chlorobenzoic acid)ester)hexyl)-N′-cyano-N″-(4-pyridyl)guanidine] | – | 0.00225 | – |
| N#CN=C(NCCCCCCCCCCCCNC(=NC#N)Nc1ccncc1)Nc1ccncc1 [compound 4, 1,12-bis(N′-cyano-N″-4-pyridylguanidine)dodecane] | – | 0.00052 | – |
| N#CNC(=Nc1ccncc1)NCCCCCCOc1ccccc1Br [compound 8, N-cyano-N′-(6-(o-bromophenoxy)hexyl)-N″-(4-pyridyl)guanidine] | 205 (≈ 494 µM) | – | – |
| N#CNC(=Nc1ccncc1)NCCCCCCOc1c(Cl)cc(Cl)cc1Cl [compound 17, N-cyano-N′-(6-((2,4,6-trichlorophenyl)oxo)hexyl)-N″-(4-pyridyl)guanidine] | – | 0.00669 | – |
| N#CNC(=Nc1ccncc1)NCCCCCOc1ccccc1Cl [compound 11, N-cyano-N′-(5-(o-chlorophenoxy)pentyl)-N″-(4-pyridyl)guanidine] | 2.85 (≈ 7.96 µM) | – | – |
| N#CNC(=Nc1ccncc1)NCCCCCOc1ccc(Cl)cc1Cl [compound 15, N-cyano-N′-(5-((2,4-dichlorophenyl)oxo)pentyl)-N″-(4-pyridyl)guanidine] | – | 0.000829 | – |
| CC(C)(C)OC(=O)NCCCCCCCCCCCCNC(=Nc1ccncc1)NC#N [compound 5, N-(12-(tert-butoxycarbonylamino)dodecyl)-N′-cyano-N″-(4-pyridyl)guanidine] | 0.92 (≈ 2.07 µM) | – | – |
| N#CNC(=Nc1ccncc1)NCCCCCCOc1c(Cl)cccc1Cl [compound 9, N-cyano-N′-(6-((2,6-dichlorophenyl)oxo)hexyl)-N″-(4-pyridyl)guanidine] | – | 0.05331 | – |
| N#CNC(=Nc1ccncc1)NCCCCCCOc1ccc(F)cc1Cl [compound 7] | – | 0.09993 | – |
| N#CNC(=Nc1ccncc1)NCCCCCCOc1ccccc1OC(F)(F)F [compound 10] | – | 0.01965 | – |
| COc1ccccc1OCCCCCCCCNC(=Nc1ccncc1)NC#N [compound 14, N-cyano-N′-(8-((o-methoxyphenyl)oxo)octyl)-N″-(4-pyridyl)guanidine] | – | 0.1481 | – |
| N#CNC(=Nc1ccncc1)NCCCCCCCOc1ccccc1Cl [compound 12, N-cyano-N′-(7-(o-chlorophenoxy)heptyl)-N″-(4-pyridyl)guanidine] | 3.72 (≈ 9.64 µM) | – | – |
